The text below walks through data of patent US8791123B2, “Substituted pyrazolo[1,5-a]pyrimidine compounds as Trk kinase inhibitors” (Array Biopharma, Inc., priority 2009, dated 2014).

Where a name gives a salt, the structure may show the parent alone. Read-outs that look alike come from different tables or passages of the source.

One assay addresses Human Jak2 kinase domain (Homo sapiens (Human), UniProt O60674). Description: Jak2 Inhibition Assay (Omnia kinase assay). The format is biochemical. Particulars: read-out: Jak2 Enzyme IC50.
Assay [1] has as its target TrkA (histidine-tagged recombinant human TrkA, cytoplasmic domain) (Homo sapiens (Human), UniProt P04629). Briefly: TrkA ELISA Assay. In kind it is biochemical. Particulars: Table 1; ELISA, 500 μM ATP; read-out: TrkA Enzyme IC50. An outline of the steps:
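His-tagged human TrkA cytoplasmic domain phosphorylated poly(Glu,Ala,Tyr 6:3:1) coated at 0.025 mg/mL, with inhibitors present. Phosphotyrosine was detected with HRP-conjugated PY20 antibody (0.2 μg/mL) and TMB, read as absorbance at 450 nm after phosphoric acid stop.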

Where [2] appears, read: Table 1, 500 μM ATP, >1000 nM when >50% inhibition not observed at 1000 nM.

Sequence of Human Jak2 kinase domain (O60674 808-1132): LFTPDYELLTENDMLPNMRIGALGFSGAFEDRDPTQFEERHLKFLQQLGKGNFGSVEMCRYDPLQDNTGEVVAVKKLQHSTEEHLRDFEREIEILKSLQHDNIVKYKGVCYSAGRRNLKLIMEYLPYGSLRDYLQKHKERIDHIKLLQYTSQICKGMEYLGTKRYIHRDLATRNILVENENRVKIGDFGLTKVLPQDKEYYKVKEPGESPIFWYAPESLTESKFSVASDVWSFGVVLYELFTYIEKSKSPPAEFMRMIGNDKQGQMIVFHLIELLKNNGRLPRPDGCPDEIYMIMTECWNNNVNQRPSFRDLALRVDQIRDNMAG
Sequence of TrkA (histidine-tagged recombinant human TrkA, cytoplasmic domain) (P04629 440-796): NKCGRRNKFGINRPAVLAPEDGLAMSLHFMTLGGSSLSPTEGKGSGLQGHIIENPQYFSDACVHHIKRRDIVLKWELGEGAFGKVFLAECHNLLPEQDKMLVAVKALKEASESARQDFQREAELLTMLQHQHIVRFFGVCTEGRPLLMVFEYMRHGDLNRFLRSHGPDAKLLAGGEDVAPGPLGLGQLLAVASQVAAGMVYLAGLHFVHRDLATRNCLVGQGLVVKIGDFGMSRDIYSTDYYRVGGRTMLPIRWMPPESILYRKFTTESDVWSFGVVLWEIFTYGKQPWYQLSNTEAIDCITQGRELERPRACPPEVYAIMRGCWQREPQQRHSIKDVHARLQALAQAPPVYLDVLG

For orientation: IC50 means the concentration that gives 50% inhibition. As for `C[C@@H](O)[C@H](CO)NC(=O)c1cnn2ccc(N3CCC[C@@H]3c3cc(F)ccc3F)nc12` [Example 174, 5-((R)-2-(2,5-difluorophenyl)pyrrolidin-1-yl)-N-((2S,3R)-1,3-dihydroxybutan-2-yl)pyrazolo[1,5-a]pyrimidine-3-carboxamide], the IC50 is over 1 µM at Human Jak2 kinase domain (setting [2]) and 0.0163 µM in assay [1].
The like results for `O=C(c1cnn2ccc(N3CCC[C@@H]3c3cc(F)ccc3F)nc12)N1CC[C@H](O)C1` [Example 18, (5-((R)-2-(2,5-difluorophenyl)pyrrolidin-1-yl)pyrazolo[1,5-a]pyrimidin-3-yl)((S)-3-hydroxypyrrolidin-1-yl)methanone] were, in that order, over 1 µM and 0.0383 µM.
The like results for `CC(C)(N)CNC(=O)c1cnn2ccc(N3CCC[C@@H]3c3cc(F)ccc3F)nc12` [Example 58, (R)—N-(2-amino-2-methylpropyl)-5-(2-(2,5-difluorophenyl)pyrrolidin-1-yl)pyrazolo[1,5-a]pyrimidine-3-carboxamide] were, in that order, over 1 µM and 0.0094 µM.
As to `C[C@H](O)CNC(=O)c1cnn2ccc(N3CCC[C@@H]3c3cc(F)ccc3F)nc12` [Example 166, 5-((R)-2-(2,5-difluorophenyl)pyrrolidin-1-yl)-N-(2-hydroxypropyl)pyrazolo[1,5-a]primidine-3-carboxamide], the IC50 on Human Jak2 kinase domain (setting [2]) was over 1 µM; in assay [1] it was 0.0024 µM.
In the same order, the values of `CC(C)(C)NC(=O)c1cnn2ccc(N3CCC[C@@H]3c3cc(F)c[nH]c3=O)nc12` [Example 202, (R)—N-tert-butyl-5-(2-(5-fluoro-2-oxo-1,2-dihydropyridin-3-yl)pyrrolidin-1-yl)pyrazolo[1,5-a]pyrimidine-3-carboxamide] are over 1 µM and 0.0193 µM.
The like results for `CC(C)(C)[C@@H](CO)NC(=O)c1cnn2ccc(N3CCC[C@@H]3c3cc(F)ccc3F)nc12` [Example 180, 5-((R)-2-(2,5-difluorophenyl)pyrrolidin-1-yl)-N-((S)-1-hydroxy-3,3-dimethylbutan-2-yl)pyrazolo[1,5-a]pyrimidine-3-carboxamide] were, in that order, over 1 µM and 0.0123 µM.
For `COc1ncc(F)cc1[C@H]1CCCN1c1ccn2ncc(C(=O)NC(CO)CO)c2n1` [Example 160, (R)-N-(1,3-dihydroxypropan-2-yl)-5-(2-(5-fluoro-2-methoxypyridin-3-yl)pyrrolidin-1-yl)pyrazolo[1,5-a]pyrimidine-3-carboxamide], the IC50 on Human Jak2 kinase domain (setting [2]) was over 1 µM; in assay [1] it was 0.0256 µM.
The like results for `O=C(NCCO)c1cnn2ccc(N3CCC[C@@H]3c3cncc(F)c3)nc12` [Example 112, (R)-5-(2-(5-fluoropyridin-3-yl)pyrrolidin-1-yl)-N-(2-hydroxyethyl)pyrazolo[1,5-a]pyrimidine-3-carboxamide] were, in that order, over 1 µM and 0.0309 µM.
For the compound `CC1(C)OCC(COc2ccc(F)cc2[C@H]2CCCN2c2ccn3ncc(C(N)=O)c3n2)O1` (stereo partly drawn) [Example 205, 5-((2R)-2-(2-((2,2-dimethyl-1,3-dioxolan-4-yl)methoxy)-5-fluorophenyl)pyrrolidin-1-yl)pyrazolo[1,5-a]pyrimidine-3-carboxamide], the concentration for half-maximal inhibition (IC50) on Human Jak2 kinase domain (setting [2]) was over 1 µM; in assay [1] it was 0.0143 µM.
The like results for `O=C(NOCCO)c1cnn2ccc(N3CCC[C@@H]3c3cc(F)cnc3Cl)nc12` [Example 225, (R)-5-(2-(2-chloro-5-fluoropyridin-3-yl)pyrrolidin-1-yl)-N-(2-hydroxyethoxy)pyrazolo[1,5-a]pyrimidine-3-carboxamide] were, in that order, over 1 µM and 0.0524 µM.
In the same order, the values of `Cn1cc(CNC(=O)c2cnn3ccc(N4CCC[C@@H]4c4cc(F)ccc4F)nc23)cn1` [Example 22, (R)-5-(2-(2,5-difluorophenyl)pyrrolidin-1-yl)-N-((1-methyl-1H-pyrazol-4-yl)methyl)pyrazolo[1,5-a]pyrimidine-3-carboxamide] are over 1 µM and 0.0021 µM.
On to `CNC(=O)c1cnn2ccc(N3C[C@@H](O)C[C@@H]3c3cccc(F)c3)nc12` [Example 218, 5-((2R,4S)-2-(3-fluorophenyl)-4-hydroxypyrrolidin-1-yl)-N-methylpyrazolo[1,5-a]pyrimidine-3-carboxamide], for which the IC50 at Human Jak2 kinase domain (setting [2]) was over 1 µM; in assay [1], 0.0339 µM.
Turning to `O=C(N[C@@H]1C2CC[C@@H](C2)[C@@H]1CO)c1cnn2ccc(N3CCC[C@@H]3c3cncc(F)c3)nc12` [Example 138, 5-((R)-2-(5-fluoropyridin-3-yl)pyrrolidin-1-yl)-N-((2R,3S,4S)-3-(hydroxymethyl)bicyclo[2.2.1]heptan-2-yl)pyrazolo[1,5-a]pyrimidine-3-carboxamide], the concentration for half-maximal inhibition (IC50) at Human Jak2 kinase domain (setting [2]) was over 1 µM; in assay [1], 0.0348 µM.
Turning to `CC(C)(C#N)NC(=O)c1cnn2ccc(N3CCC[C@@H]3c3cc(F)ccc3F)nc12` [Example 38, (R)—N-(2-cyanopropan-2-yl)-5-(2-(2,5-difluorophenyl)pyrrolidin-1-yl)pyrazolo[1,5-a]pyrimidine-3-carboxamide], the IC50 is over 1 µM on Human Jak2 kinase domain and 0.0013 µM in assay [1].
With `COc1ncc(F)cc1[C@H]1CCCN1c1ccn2ncc(C(=O)Nc3ccc(=O)[nH]c3)c2n1` [Example 161, (R)-5-(2-(5-fluoro-2-methoxypyridin-3-yl)pyrrolidin-1-yl)-N-(6-oxo-1,6-dihydropyridin-3-yl)pyrazolo[1,5-a]pyrimidine-3-carboxamide], the IC50 was over 1 µM at Human Jak2 kinase domain (setting [2]) and 0.003 µM in assay [1].
In the case of `O=C(N[C@@H]1CCNC[C@@H]1F)c1cnn2ccc(N3CCC[C@@H]3c3cc(F)ccc3F)nc12` [Example 61, 5-((R)-2-(2,5-difluorophenyl)pyrrolidin-1-yl)-N-((3S,4R)-3-fluoropiperidin-4-yl)pyrazolo[1,5-a]pyrimidine-3-carboxamide hydrochloride], the IC50 at Human Jak2 kinase domain came to 0.699 µM; in assay [1] it was 0.00195 µM.
As for `CC(C)(CO)CNC(=O)c1cnn2ccc(N3CCC[C@@H]3c3cncc(F)c3)nc12` [Example 125, (R)-5-(2-(5-fluoropyridin-3-yl)pyrrolidin-1-yl)-N-(3-hydroxy-2,2-dimethylpropyl)pyrazolo[1,5-a]pyrimidine-3-carboxamide], the IC50 on Human Jak2 kinase domain (setting [2]) is over 1 µM; in assay [1], 0.0128 µM.
The like results for `CONC(=O)c1cnn2ccc(N3CCC[C@@H]3c3cc(F)ccc3F)nc12` [Example 65, (R)-5-(2-(2,5-difluorophenyl)pyrrolidin-1-yl)-N-methoxypyrazolo[1,5-a]pyrimidine-3-carboxamide] were, in that order, over 1 µM and 0.0006 µM.
For the compound `COc1ncc(F)cc1[C@H]1CCCN1c1ccn2ncc(C(=O)NCC(C)(C)O)c2n1` [Example 158, (R)-5-(2-(5-fluoro-2-methoxypyridin-3-yl)pyrrolidin-1-yl)-N-(2-hydroxy-2-methylpropyl)pyrazolo[1,5-a]pyrimidine-3-carboxamide], the values for the IC50 (at Human Jak2 kinase domain (setting [2]); in assay [1]) were over 1 µM and 0.0099 µM, respectively.
In the same order, the values of `C[C@@H](O)CNC(=O)c1cnn2ccc(N3CCC[C@@H]3c3cncc(F)c3)nc12` [Example 110, 5-((R)-2-(5-fluoropyridin-3-yl)pyrrolidin-1-yl)-N-((R)-2-hydroxypropyl)pyrazolo[1,5-a]pyrimidine-3-carboxamide] are over 1 µM and 0.0372 µM.
The like results for `Cc1ncc(F)cc1[C@H]1CCCN1c1ccn2ncc(C(=O)NC(C)(C)C)c2n1` [Example 183, (R)-N-tert-butyl-5-(2-(5-fluoro-2-methylpyridin-3-yl)pyrrolidin-1-yl)pyrazolo[1,5-a]pyrimidine-3-carboxamide] were, in that order, over 1 µM and 0.0069 µM.
With `CC1(C)CC[C@H](c2cc(F)ccc2F)N1c1ccn2ncc(C(=O)NC3CC3)c2n1` [Example 68, (R)—N-cyclopropyl-5-(5-(2,5-difluorophenyl)-2,2-dimethylpyrrolidin-1-yl)pyrazolo[1,5-a]pyrimidine-3-carboxamide], the results for the IC50 (on Human Jak2 kinase domain (setting [2]); in assay [1]) were over 1 µM and 0.0066 µM, respectively.
In the same order, the values of `Cc1ncc(F)cc1[C@H]1CCCN1c1ccn2ncc(C(=O)N3CC(O)C3)c2n1` [Example 192, (R)-(5-(2-(5-fluoro-2-methylpyridin-3-yl)pyrrolidin-1-yl)pyrazolo[1,5-a]pyrimidin-3-yl)(3-hydroxyazetidin-1-yl)methanone] are over 1 µM and 0.438 µM.
The like results for `Cc1ccc(CNC(=O)c2cnn3ccc(N4CCC[C@@H]4c4cc(F)ccc4F)nc23)o1` [Example 5, (R)-5-(2-(2,5-difluorophenyl)pyrrolidin-1-yl)-N-((5-methylfuran-2-yl)methyl)pyrazolo[1,5-a]pyrimidine-3-carboxamide] were, in that order, over 1 µM and 0.00095 µM.
In the same order, the values of `O=C(Nc1ccccn1)c1cnn2ccc(N3CCC[C@@H]3c3cc(F)ccc3F)nc12` [Example 2, (R)-5-(2-(2,5-difluorophenyl)pyrrolidin-1-yl)-N-(pyridin-2-yl)pyrazolo[1,5-a]pyrimidine-3-carboxamide] are over 1 µM and 0.0007 µM.
Turning to `O=C(N[C@H]1CC[C@H](O)C1)c1cnn2ccc(N3CCC[C@@H]3c3cncc(F)c3)nc12` [Example 105, 5-((R)-2-(5-fluoropyridin-3-yl)pyrrolidin-1-yl)-N-((1S,3S)-3-hydroxycyclopentyl)pyrazolo[1,5-a]pyrimidine-3-carboxamide], the IC50 was over 1 µM on Human Jak2 kinase domain (setting [2]) and 0.0254 µM in assay [1].
In the same order, the values of `CC(C)NC(=O)c1cnn2ccc(N3[C@@H](c4cncc(F)c4)CC[C@@]3(C)CO)nc12` [Example 219, 5-((2S,5R)-5-(5-fluoropyridin-3-yl)-2-(hydroxymethyl)-2-methylpyrrolidin-1-yl)-N-isopropylpyrazolo[1,5-a]pyrimidine-3-carboxamide] are over 1 µM and 0.188 µM.
